Measurements taken from paper PMC11374673, “Discovery of isoquinoline sulfonamides as allosteric gyrase inhibitors with activity against fluoroquinolone-resistant bacteria” (Nature Chemistry, 2024).
≈ marks a conversion by molar mass, not a printed value. Where “and” joins values, the source holds several entries; their conditions need not be identical. Identical values can stand only once. Entries after “also recorded” stand apart in the source; their conditions may differ.

Legend:
[1] = system: E. coli W3110; assay: Checkerboard assay with PMBN;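 for checkerboard plate reading, Average values: OD600 read after 20 h incubation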;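 for checkerboard plate reading, replicate wells: OD600 read after 20 h incubation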
[2] = system: E. coli ATCC 25922; assay: MIC by broth microdilution; type: cell-based; conditions: Escherichia coli, ATCC25922, read-out: MIC E. coli ATCC 25922
Description: MIC was determined by broth microdilution. Single-colony cultures were grown to exponential phase (OD600 of 0.5) aerobically at 37 °C. In case of strains from the Keio collection, 50 µg ml^−1 kanamycin was supplemented to the media to ascertain a homogeneous population. The bacterial suspensions were diluted 100-fold in CAMHB and 50 µl was added to a twofold serial dilution series of test compounds (50 µl per well) in polypropylene 96-well microtitre plates to reach a volume of 100 µl. The plates were sealed with breathable membranes and incubated overnight at 37 °C with constant shaking (600 r.p.m.).

SMILES: O=S(=O)(NC[C@@H]1CC[C@H](c2ccc(-c3cccnc3)cc2)N1)c1cccc2cnccc12 [LEI-800]
- checkerboard plate reading, replicate wells ([1]; LEI-800 0.0976562 µM + PMBN 0 µM): 0.5677 and 0.5498 and 0.5376
- checkerboard plate reading, Average values ([1]; LEI-800 0.0976562 µM + PMBN 0 µM (by position)): 0.5517
- checkerboard plate reading, replicate wells ([1]; LEI-800 0.0976562 µM + PMBN 0.5 µM): 0.5272 and 0.5363 and 0.6045
- checkerboard plate reading, Average values ([1]; LEI-800 0.0976562 µM + PMBN 0.5 µM (by position)): 0.5382
- checkerboard plate reading, replicate wells ([1]; LEI-800 0.0976562 µM + PMBN 1 µM): 0.5455 and 0.5265 and 0.5304
- checkerboard plate reading, Average values ([1]; LEI-800 0.0976562 µM + PMBN 1 µM (by position)): 0.5337
- checkerboard plate reading, replicate wells ([1]; LEI-800 0.0976562 µM + PMBN 2 µM): 0.528 and 0.523 and 0.4812
- checkerboard plate reading, Average values ([1]; LEI-800 0.0976562 µM + PMBN 2 µM (by position)): 0.556
- checkerboard plate reading, replicate wells ([1]; LEI-800 0.0976562 µM + PMBN 4 µM): 0.3324 and 0.3512 and 0.3333
- checkerboard plate reading, Average values ([1]; LEI-800 0.0976562 µM + PMBN 4 µM (by position)): 0.5558
- checkerboard plate reading, replicate wells ([1]; LEI-800 0.0976562 µM + PMBN 8 µM): 0.2503 and 0.2429 and 0.246
- checkerboard plate reading, Average values ([1]; LEI-800 0.0976562 µM + PMBN 8 µM (by position)): 0.5538
- checkerboard plate reading, replicate wells ([1]; LEI-800 0.0976562 µM + PMBN 16 µM): 0.2399 and 0.265 and 0.2959
- checkerboard plate reading, Average values ([1]; LEI-800 0.0976562 µM + PMBN 16 µM (by position)): 0.5341
- checkerboard plate reading, replicate wells ([1]; LEI-800 0.0976562 µM + PMBN 32 µM): 0.2697 and 0.2568 and 0.2475
- checkerboard plate reading, Average values ([1]; LEI-800 0.0976562 µM + PMBN 32 µM (by position)): 0.5346
- checkerboard plate reading, Average values ([1]; LEI-800 0.195312 µM + PMBN 0 µM (by position)): 0.5248
- checkerboard plate reading, Average values ([1]; LEI-800 0.195312 µM + PMBN 0.5 µM (by position)): 0.5135
- checkerboard plate reading, Average values ([1]; LEI-800 0.195312 µM + PMBN 1 µM (by position)): 0.5141
- checkerboard plate reading, Average values ([1]; LEI-800 0.195312 µM + PMBN 2 µM (by position)): 0.5165
- checkerboard plate reading, Average values ([1]; LEI-800 0.195312 µM + PMBN 4 µM (by position)): 0.4968
- checkerboard plate reading, Average values ([1]; LEI-800 0.195312 µM + PMBN 8 µM (by position)): 0.478
- checkerboard plate reading, Average values ([1]; LEI-800 0.195312 µM + PMBN 16 µM (by position)): 0.4685
- checkerboard plate reading, Average values ([1]; LEI-800 0.195312 µM + PMBN 32 µM (by position)): 0.4392
- checkerboard plate reading, Average values ([1]; LEI-800 0.390625 µM + PMBN 0 µM (by position)): 0.4881
- checkerboard plate reading, Average values ([1]; LEI-800 0.390625 µM + PMBN 0.5 µM (by position)): 0.4714
- checkerboard plate reading, Average values ([1]; LEI-800 0.390625 µM + PMBN 1 µM (by position)): 0.4607
- checkerboard plate reading, Average values ([1]; LEI-800 0.390625 µM + PMBN 2 µM (by position)): 0.4461
- checkerboard plate reading, Average values ([1]; LEI-800 0.390625 µM + PMBN 4 µM (by position)): 0.399
- checkerboard plate reading, Average values ([1]; LEI-800 0.390625 µM + PMBN 8 µM (by position)): 0.3657
- checkerboard plate reading, Average values ([1]; LEI-800 0.390625 µM + PMBN 16 µM (by position)): 0.3222
- checkerboard plate reading, Average values ([1]; LEI-800 0.390625 µM + PMBN 32 µM (by position)): 0.2778
- checkerboard plate reading, Average values ([1]; LEI-800 0.78125 µM + PMBN 0 µM (by position)): 0.4191
- checkerboard plate reading, Average values ([1]; LEI-800 0.78125 µM + PMBN 0.5 µM (by position)): 0.3258
- checkerboard plate reading, Average values ([1]; LEI-800 0.78125 µM + PMBN 1 µM (by position)): 0.2348
- checkerboard plate reading, Average values ([1]; LEI-800 0.78125 µM + PMBN 2 µM (by position)): 0.1359
- checkerboard plate reading, Average values ([1]; LEI-800 0.78125 µM + PMBN 4 µM (by position)): 0.1369
- checkerboard plate reading, Average values ([1]; LEI-800 0.78125 µM + PMBN 8 µM (by position)): 0.1405
- checkerboard plate reading, Average values ([1]; LEI-800 0.78125 µM + PMBN 16 µM (by position)): 0.1463
- checkerboard plate reading, Average values ([1]; LEI-800 0.78125 µM + PMBN 32 µM (by position)): 0.1515
- checkerboard plate reading, Average values ([1]; LEI-800 1.5625 µM + PMBN 0 µM (by position)): 0.3277
- checkerboard plate reading, Average values ([1]; LEI-800 1.5625 µM + PMBN 0.5 µM (by position)): 0.2628
- checkerboard plate reading, replicate wells ([1]; LEI-800 1.5625 µM + PMBN 1 µM): 0.1569
- checkerboard plate reading, Average values ([1]; LEI-800 1.5625 µM + PMBN 1 µM (by position)): 0.2051
- checkerboard plate reading, replicate wells ([1]; LEI-800 1.5625 µM + PMBN 2 µM): 0.1524 and 0.1433 and 0.1454
- checkerboard plate reading, Average values ([1]; LEI-800 1.5625 µM + PMBN 2 µM (by position)): 0.1478
- checkerboard plate reading, replicate wells ([1]; LEI-800 1.5625 µM + PMBN 4 µM): 0.1452 and 0.1502 and 0.1384
- checkerboard plate reading, Average values ([1]; LEI-800 1.5625 µM + PMBN 4 µM (by position)): 0.1494
- checkerboard plate reading, Average values ([1]; LEI-800 1.5625 µM + PMBN 8 µM (by position)): 0.1497
- checkerboard plate reading, Average values ([1]; LEI-800 1.5625 µM + PMBN 16 µM (by position)): 0.1521
- checkerboard plate reading, Average values ([1]; LEI-800 1.5625 µM + PMBN 32 µM (by position)): 0.1528
- checkerboard plate reading, replicate wells ([1]; LEI-800 3.125 µM + PMBN 0 µM): 0.2026 and 0.2019 and 0.1984
- checkerboard plate reading, Average values ([1]; LEI-800 3.125 µM + PMBN 0 µM (by position)): 0.201
- checkerboard plate reading, replicate wells ([1]; LEI-800 3.125 µM + PMBN 0.5 µM): 0.1489 and 0.151 and 0.1511
- checkerboard plate reading, replicate wells ([1]; LEI-800 3.125 µM + PMBN 1 µM): 0.1556 and 0.1491 and 0.1492
- checkerboard plate reading, Average values ([1]; LEI-800 3.125 µM + PMBN 1 µM (by position)): 0.1661
- checkerboard plate reading, replicate wells ([1]; LEI-800 3.125 µM + PMBN 2 µM): 0.1469 and 0.1488 and 0.1457
- checkerboard plate reading, Average values ([1]; LEI-800 3.125 µM + PMBN 2 µM (by position)): 0.1503
- checkerboard plate reading, replicate wells ([1]; LEI-800 3.125 µM + PMBN 4 µM): 0.1605 and 0.1486 and 0.1531
- checkerboard plate reading, Average values ([1]; LEI-800 3.125 µM + PMBN 4 µM (by position)): 0.1504
- checkerboard plate reading, replicate wells ([1]; LEI-800 3.125 µM + PMBN 8 µM): 0.1502 and 0.1529 and 0.1524
- checkerboard plate reading, Average values ([1]; LEI-800 3.125 µM + PMBN 8 µM (by position)): 0.1498
- checkerboard plate reading, replicate wells ([1]; LEI-800 3.125 µM + PMBN 16 µM): 0.1512 and 0.151 and 0.1573
- checkerboard plate reading, Average values ([1]; LEI-800 3.125 µM + PMBN 16 µM (by position)): 0.1513
- checkerboard plate reading, replicate wells ([1]; LEI-800 3.125 µM + PMBN 32 µM): 0.1461 and 0.1492 and 0.1481
- checkerboard plate reading, Average values ([1]; LEI-800 3.125 µM + PMBN 32 µM (by position)): 0.1506
- MIC E. coli + 8 μM PMBN ([1]; LPS disruption (pharmacological)): 0.4 µM
- synergy with PMBN ([1]; checkerboard): potentiates; also recorded: Clear synergy
- MSC ([1]; checkerboard with PMBN, E. coli W3110): 0.39 µM
- MIC [2]: 6.25 µM (≈ 2.78 µg/mL)
